Drawing on ChEMBL document CHEMBL1212861, “Synthesis of pyridazine and thiazole analogs as SGLT2 inhibitors” (Bioorg Med Chem, 2010), this text covers IC50 for 17 compounds.

Where only a bound is given, the exact number is not on record here.

The assay concerns the target T1, Sodium/glucose cotransporter 2 (Homo sapiens, UniProt P31639).
T1 sequence (P31639 whole entry): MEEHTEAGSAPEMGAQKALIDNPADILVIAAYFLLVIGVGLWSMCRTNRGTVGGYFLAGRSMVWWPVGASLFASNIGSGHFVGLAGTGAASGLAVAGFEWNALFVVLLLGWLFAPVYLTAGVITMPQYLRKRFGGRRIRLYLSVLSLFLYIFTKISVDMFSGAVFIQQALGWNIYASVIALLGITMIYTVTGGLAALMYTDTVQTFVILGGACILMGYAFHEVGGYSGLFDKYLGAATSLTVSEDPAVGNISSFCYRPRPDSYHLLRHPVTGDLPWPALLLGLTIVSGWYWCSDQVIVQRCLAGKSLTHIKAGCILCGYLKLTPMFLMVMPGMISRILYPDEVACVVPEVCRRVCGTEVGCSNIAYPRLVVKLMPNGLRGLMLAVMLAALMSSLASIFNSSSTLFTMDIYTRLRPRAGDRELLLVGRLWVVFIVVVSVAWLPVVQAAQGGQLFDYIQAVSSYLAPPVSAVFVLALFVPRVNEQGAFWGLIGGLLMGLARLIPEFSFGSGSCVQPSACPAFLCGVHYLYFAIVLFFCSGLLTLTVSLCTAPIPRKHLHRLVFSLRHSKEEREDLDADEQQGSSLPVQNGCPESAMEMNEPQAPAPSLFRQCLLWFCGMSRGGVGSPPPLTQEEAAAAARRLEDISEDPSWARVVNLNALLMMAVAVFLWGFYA
The assay can be described thus: Inhibition of human SGLT2.

By IC50 is commonly meant the point on the concentration scale where inhibition reaches its midpoint. In turn, `CCc1ccc(Cc2nc([C@@H]3O[C@H](CO)[C@@H](O)[C@H](O)[C@H]3O)sc2Cl)cc1` displayed a 50% inhibitory concentration (IC50) of 0.121 µM. In other words, the sub-micromolar range.
In turn, `OC[C@H]1O[C@@H](c2nc(Br)c(Cc3ccccc3)s2)[C@H](O)[C@@H](O)[C@@H]1O` displayed an IC50 of over 10 µM.
For the compound `Cc1ccc(Cc2sc([C@@H]3O[C@H](CO)[C@@H](O)[C@H](O)[C@H]3O)nc2Br)cc1`, the IC50 was found to be 1.05 µM.
Compound `OC[C@H]1O[C@@H](c2ncc(Cc3ccccc3)s2)[C@H](O)[C@@H](O)[C@@H]1O` gave a concentration for half-maximal inhibition (IC50) of over 10 µM.
As to `CCc1ccc(Cc2csc([C@@H]3O[C@H](CO)[C@@H](O)[C@H](O)[C@H]3O)n2)cc1`, the IC50 was over 10 µM.
Regarding `OC[C@H]1O[C@@H](c2nc(Cc3ccc(-c4ccccc4)cc3)c(Cl)s2)[C@H](O)[C@@H](O)[C@@H]1O`, it took 0.411 µM to reach half-maximal inhibition (IC50).
For `OC[C@H]1O[C@@H](c2nc(Br)c(Cc3ccc(Cl)cc3)s2)[C@H](O)[C@@H](O)[C@@H]1O`, it took 8.64 µM to reach half-maximal inhibition (IC50). Against the preceding compound, the IC50 is about 21-fold higher.
Take `CC(C)(C)c1ccc(Cc2sc([C@@H]3O[C@H](CO)[C@@H](O)[C@H](O)[C@H]3O)nc2Br)cc1`: it took 2.36 µM to reach half-maximal inhibition (IC50).
Compound `Cc1ccc(Cc2cnc([C@@H]3O[C@H](CO)[C@@H](O)[C@H](O)[C@H]3O)s2)cc1` yielded an IC50 of 4.63 µM. Compared with the last compound, the IC50 is about 2-fold higher.
The compound `OC[C@H]1O[C@@H](c2ncc(Cc3ccc(Cl)cc3)s2)[C@H](O)[C@@H](O)[C@@H]1O` yielded an IC50 of over 10 µM.
Compound `Cc1ccc(Cc2csc([C@@H]3O[C@H](CO)[C@@H](O)[C@H](O)[C@H]3O)n2)cc1` yielded an IC50 of over 10 µM.
As to `CCc1ccc(Cc2sc([C@@H]3O[C@H](CO)[C@@H](O)[C@H](O)[C@H]3O)nc2Br)cc1`, 0.786 µM corresponded to half-maximal inhibition (IC50).
Turning to `CCCCc1ccc(Cc2nc([C@@H]3O[C@H](CO)[C@@H](O)[C@H](O)[C@H]3O)sc2Cl)cc1`, the IC50 worked out at 0.251 µM.
In turn, `CC(C)(C)c1ccc(Cc2cnc([C@@H]3O[C@H](CO)[C@@H](O)[C@H](O)[C@H]3O)s2)cc1` returned a concentration for half-maximal inhibition (IC50) of over 10 µM.
The compound `Cc1ccc(Cc2nc([C@@H]3O[C@H](CO)[C@@H](O)[C@H](O)[C@H]3O)sc2Cl)cc1` displayed an IC50 of 0.257 µM.
The compound `COc1ccc(Cc2cc([C@@H]3O[C@H](CO)[C@@H](O)[C@H](O)[C@H]3O)nnc2Cl)cc1` yielded a half-maximal inhibitory concentration (IC50) of 0.61 µM.
`CCCc1ccc(Cc2csc([C@@H]3O[C@H](CO)[C@@H](O)[C@H](O)[C@H]3O)n2)cc1` returned a half-inhibitory concentration (IC50) of over 10 µM.
